According to PubChem BioAssay (NCI):
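These data come from cells grown in 96-well plates and exposed to compound for 48 hours at five concentrations. GI50 is the concentration that inhibits growth by half. TGI marks complete inhibition of growth.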

Assays:
Test in all cases: NCI anticancer screen, dose series, 48 h
SW-620 colon = system: SW-620 colon
HS 578T breast = system: HS 578T breast
LOX IMVI melanoma = system: LOX IMVI melanoma
KM12 colon = system: KM12 colon
NCI-H522 lung = system: NCI-H522 lung
PC-3 prostate = system: PC-3 prostate
OVCAR-5 ovarian = system: OVCAR-5 ovarian
MCF7 breast = system: MCF7 breast
MALME-3M melanoma = system: MALME-3M melanoma
MDA-N = system: MDA-N
786-0 renal = system: 786-0 renal

## N#Cc1c(-c2ccc(F)cc2)nc(N/N=C/c2c[nH]c3ccccc23)nc1N1CCOCC1
SW-620 colon
  GI50: 1.58 µM
  TGI: 4.69 µM
HS 578T breast
  GI50: 3.62 µM
  TGI: 32.5 µM
LOX IMVI melanoma
  GI50: 3.33 µM
  TGI: 11.2 µM
KM12 colon
  GI50: 4.96 µM
  TGI: 68.9 µM
NCI-H522 lung
  GI50: 2.59 µM
  TGI: 7.15 µM
PC-3 prostate
  GI50: 3.54 µM
  TGI: > 100 µM
OVCAR-5 ovarian
  GI50: 19.5 µM
  TGI: 74 µM
MCF7 breast
  GI50: 4.56 µM
  TGI: 57.4 µM
MALME-3M melanoma
  GI50: 2.75 µM
  TGI: 4.76 µM

## CN(C)CCn1c(=O)c2ccc(NCCCN(C)CCCNc3ccc4c(=O)n(CCN(C)C)c(=O)n5c6ccc([N+](=O)[O-])cc6c(=O)c3c45)c3c(=O)c4cc([N+](=O)[O-])ccc4n(c1=O)c23
MDA-N
  TGI: 0.22 µM
786-0 renal
  TGI: 0.385 µM
KM12 colon
  TGI: 0.27 µM
NCI-H522 lung
  TGI: 0.134 µM
PC-3 prostate
  TGI: 0.293 µM
OVCAR-5 ovarian
  TGI: 1.1 µM
MCF7 breast
  TGI: 0.608 µM
MALME-3M melanoma
  TGI: 0.781 µM

## CC1(C)CNC(=O)C2(C=NC(C)(C)CNC(=O)C3(C=N1)CCCO3)CCCO2 (stereo not drawn)
SW-620 colon
  TGI: > 10 µM
HS 578T breast
  TGI: > 10 µM
MDA-N
  TGI: > 10 µM
786-0 renal
  TGI: > 10 µM
KM12 colon
  TGI: > 10 µM
NCI-H522 lung
  TGI: > 10 µM
PC-3 prostate
  TGI: > 10 µM
MCF7 breast
  TGI: > 10 µM
MALME-3M melanoma
  TGI: > 10 µM

## CSc1nc2c(c(=O)n1C)N=C(c1ccccc1)[C@H](C(CC(=O)c1ccccc1)c1ccccc1)C(c1ccccc1)N2 (stereo partly drawn)
SW-620 colon
  TGI: > 100 µM
LOX IMVI melanoma
  TGI: > 100 µM
MDA-N
  TGI: > 100 µM
786-0 renal
  TGI: > 100 µM
KM12 colon
  TGI: > 100 µM
NCI-H522 lung
  TGI: > 100 µM
PC-3 prostate
  TGI: > 100 µM
OVCAR-5 ovarian
  TGI: > 100 µM
MCF7 breast
  TGI: > 100 µM
MALME-3M melanoma
  TGI: > 100 µM

## O=C(N/N=C/c1cc(Br)cc(Br)c1[O-])c1ccccc1O.O=C(N/N=C/c1cc(Br)cc(Br)c1[O-])c1ccccc1O.[Fe+2]
SW-620 colon
  TGI: 19.7 µM
LOX IMVI melanoma
  TGI: 22.7 µM
KM12 colon
  TGI: 23.9 µM
NCI-H522 lung
  TGI: 11.4 µM
OVCAR-5 ovarian
  TGI: 15.8 µM
MALME-3M melanoma
  TGI: 37.5 µM

## CC1(C)OCC2OC3([C@H]4OC(C)(C)O[C@@H]4CO)OC(C)(C)OC3C2O1 (stereo partly drawn)
SW-620 colon
  TGI: > 100 µM
LOX IMVI melanoma
  TGI: > 100 µM
MDA-N
  TGI: > 100 µM
786-0 renal
  TGI: > 100 µM
KM12 colon
  TGI: > 100 µM
PC-3 prostate
  TGI: > 100 µM
OVCAR-5 ovarian
  TGI: > 100 µM
MCF7 breast
  TGI: > 100 µM

## COC1(OC)CCCCC2c3cccc(OC(C)=O)c3C21OC(C)=O (stereo not drawn)
SW-620 colon
  TGI: > 100 µM
LOX IMVI melanoma
  TGI: > 100 µM
786-0 renal
  TGI: > 100 µM
KM12 colon
  TGI: > 100 µM
NCI-H522 lung
  TGI: > 100 µM
OVCAR-5 ovarian
  TGI: > 100 µM
MALME-3M melanoma
  TGI: > 100 µM

## CC1(C(=O)O)CCCC1C(=O)O (stereo not drawn)
SW-620 colon
  TGI: > 100 µM
HS 578T breast
  TGI: > 100 µM
LOX IMVI melanoma
  TGI: > 100 µM
MDA-N
  TGI: > 100 µM
786-0 renal
  TGI: > 100 µM
KM12 colon
  TGI: > 100 µM
NCI-H522 lung
  TGI: > 100 µM
PC-3 prostate
  TGI: > 100 µM
OVCAR-5 ovarian
  TGI: > 100 µM
MALME-3M melanoma
  TGI: > 100 µM

## O=C(CC1=NCCN1)c1ccccc1
SW-620 colon
  TGI: > 750 µM
LOX IMVI melanoma
  TGI: > 750 µM
KM12 colon
  TGI: > 750 µM
NCI-H522 lung
  TGI: > 750 µM
OVCAR-5 ovarian
  TGI: > 750 µM
MCF7 breast
  TGI: > 750 µM
MALME-3M melanoma
  TGI: > 750 µM

## NC(=O)c1cc2ccccc2o/c1=N/O
SW-620 colon
  TGI: > 100 µM
HS 578T breast
  TGI: 91.6 µM
LOX IMVI melanoma
  TGI: > 100 µM
MDA-N
  TGI: > 100 µM
786-0 renal
  TGI: > 100 µM
KM12 colon
  TGI: > 100 µM
NCI-H522 lung
  TGI: > 100 µM
PC-3 prostate
  TGI: > 100 µM
MCF7 breast
  TGI: > 100 µM

## COc1ccc(Nc2nc3c([nH]2)c(=O)n(C)c(=O)n3C)cc1
SW-620 colon
  TGI: > 10 µM
LOX IMVI melanoma
  TGI: > 10 µM
MDA-N
  TGI: > 10 µM
786-0 renal
  TGI: > 10 µM
KM12 colon
  TGI: > 10 µM
PC-3 prostate
  TGI: > 10 µM
MCF7 breast
  TGI: > 10 µM
MALME-3M melanoma
  TGI: > 10 µM

## COc1ccc2c(c1)CC1=C(O2)c2ccc(OC)cc2OC1
SW-620 colon
  TGI: 34.6 µM
LOX IMVI melanoma
  TGI: 27.2 µM
MDA-N
  TGI: 38.4 µM
786-0 renal
  TGI: 50.8 µM
KM12 colon
  TGI: > 100 µM
NCI-H522 lung
  TGI: 35.4 µM
PC-3 prostate
  TGI: 57 µM
OVCAR-5 ovarian
  TGI: > 100 µM
MALME-3M melanoma
  TGI: 45.5 µM

## CCOn1c(C2(CC3CCN(C(=O)c4ccccc4)CC3)OCCO2)cc2ccccc21
SW-620 colon
  TGI: 35.7 µM
LOX IMVI melanoma
  TGI: 30.4 µM
MDA-N
  TGI: 30.1 µM
786-0 renal
  TGI: 30 µM
KM12 colon
  TGI: 30.9 µM
NCI-H522 lung
  TGI: 35 µM
PC-3 prostate
  TGI: 26 µM
OVCAR-5 ovarian
  TGI: 37.4 µM
MCF7 breast
  TGI: 30 µM
MALME-3M melanoma
  TGI: 33.2 µM

## Cn1c([O-])nc(-n2cc[n+](C)c2)cc1=O
SW-620 colon
  TGI: > 100 µM
HS 578T breast
  TGI: > 100 µM
LOX IMVI melanoma
  TGI: > 100 µM
MDA-N
  TGI: > 100 µM
786-0 renal
  TGI: > 100 µM
KM12 colon
  TGI: > 100 µM
PC-3 prostate
  TGI: > 100 µM
OVCAR-5 ovarian
  TGI: > 100 µM
MCF7 breast
  TGI: > 100 µM
MALME-3M melanoma
  TGI: > 100 µM

## COc1c(Br)cc(CC(N)=O)c(O)c1Br
SW-620 colon
  TGI: > 100 µM
LOX IMVI melanoma
  TGI: > 100 µM
KM12 colon
  TGI: > 100 µM
NCI-H522 lung
  TGI: > 100 µM
OVCAR-5 ovarian
  TGI: > 100 µM
MALME-3M melanoma
  TGI: > 100 µM

## COc1cc2c(/C=C3/C(=O)Nc4ccccc43)c(Cl)[nH]c2cc1C
SW-620 colon
  TGI: 59 µM
HS 578T breast
  TGI: > 100 µM
LOX IMVI melanoma
  TGI: 15.4 µM
MDA-N
  TGI: 0.0396 µM
786-0 renal
  TGI: 13.9 µM
KM12 colon
  TGI: 0.232 µM
NCI-H522 lung
  TGI: 2.4 µM
PC-3 prostate
  TGI: 16.3 µM
OVCAR-5 ovarian
  TGI: 23.7 µM
MCF7 breast
  TGI: 16.6 µM

## C=C1CC(C)(c2ccc(Nc3nc4ccccc4c4occc34)cc2)OC1=O (stereo not drawn)
MDA-N
  TGI: 12.7 µM
786-0 renal
  TGI: 3.79 µM
KM12 colon
  TGI: 34 µM
PC-3 prostate
  TGI: 20 µM
OVCAR-5 ovarian
  TGI: 30.6 µM
MCF7 breast
  TGI: > 100 µM
MALME-3M melanoma
  TGI: 43.4 µM

## O=[N+]([O-])c1ccc(-c2ccc(-c3csc(Nc4ccccn4)n3)o2)cc1
SW-620 colon
  TGI: > 100 µM
LOX IMVI melanoma
  TGI: > 100 µM
KM12 colon
  TGI: > 100 µM
NCI-H522 lung
  TGI: > 100 µM
OVCAR-5 ovarian
  TGI: > 100 µM
MALME-3M melanoma
  TGI: > 100 µM

## Brc1ccc2c(-c3csc(-c4c[nH]c5cc(Br)ccc45)n3)c[nH]c2c1
SW-620 colon
  TGI: 66.5 µM
HS 578T breast
  TGI: 87.1 µM
LOX IMVI melanoma
  TGI: > 57.1 µM
MDA-N
  TGI: 13.4 µM
786-0 renal
  TGI: > 67.3 µM
KM12 colon
  TGI: 25.1 µM
PC-3 prostate
  TGI: > 79.5 µM
OVCAR-5 ovarian
  TGI: > 90.2 µM
MCF7 breast
  TGI: > 100 µM
MALME-3M melanoma
  TGI: > 100 µM

## CC(=O)OCC(OC(C)=O)C1C[C@H]2O[C@@H]3[C@H](C[C@H]2O1)O[C@@]1(C[C@@H]3C)C[C@H](C)[C@@H]2O[C@]3(C[C@@H]2O1)C[C@H]1O[C@H]2[C@H](C)[C@H]4OC(=O)CC5CC[C@H]6OC7[C@H]8O[C@]9(CC[C@H]%10CC(O)(CO)[C@H](CC[C@H]%11C[C@@H](C)C(O)(CO)C(C[C@@H]4O[C@H]2C[C@H]1O3)O%11)O%10)CC8O[C@@H]7[C@@H](O9)[C@H]6O5 (stereo partly drawn)
SW-620 colon
  TGI: > 1 µM
HS 578T breast
  TGI: 0.00517 µM
LOX IMVI melanoma
  TGI: > 0.414 µM
786-0 renal
  TGI: > 1 µM
KM12 colon
  TGI: > 0.333 µM
NCI-H522 lung
  TGI: 0.00451 µM
PC-3 prostate
  TGI: > 1 µM
OVCAR-5 ovarian
  TGI: > 1 µM
MCF7 breast
  TGI: > 1 µM
MALME-3M melanoma
  TGI: > 1 µM

## NC(=O)C(=CNC(=S)c1ccncc1)C(N)=O
SW-620 colon
  TGI: > 100 µM
HS 578T breast
  TGI: > 100 µM
LOX IMVI melanoma
  TGI: > 100 µM
MDA-N
  TGI: > 100 µM
786-0 renal
  TGI: > 100 µM
KM12 colon
  TGI: > 100 µM
NCI-H522 lung
  TGI: > 100 µM
PC-3 prostate
  TGI: > 100 µM
OVCAR-5 ovarian
  TGI: > 100 µM
MCF7 breast
  TGI: > 100 µM

## NC1CNC(=O)c2c(Cl)sc(Cl)c21 (stereo not drawn)
SW-620 colon
  TGI: > 100 µM
HS 578T breast
  TGI: > 100 µM
LOX IMVI melanoma
  TGI: > 100 µM
MDA-N
  TGI: > 100 µM
786-0 renal
  TGI: > 100 µM
KM12 colon
  TGI: > 100 µM
PC-3 prostate
  TGI: > 100 µM
OVCAR-5 ovarian
  TGI: > 100 µM
MCF7 breast
  TGI: > 100 µM
MALME-3M melanoma
  TGI: > 100 µM
